{"source": "patent USRE50172E1", "about": "“In vitro maturation of a mammalian cumulus oocyte complex” (Vrije Universiteit Brussel, priority 2014, dated 2024)", "assay_type_in_all_cases": "cell-based, mouse", "key": {"[1]": {"tested_on": "COCs from early antral follicles", "experiment": "Cumulus-oocyte connections (transzonal projections) after capacitation culture with CNP or PDE3 inhibitor (Example 2)", "settings": "48 h culture, F-actin staining of zona pellucida, no FSH; listed as CNP", "procedure": "Basal culture medium for the culture of COCs (Pre-IVM and IVM phases) consisted of α-MEM, 2.5% FBS (both from Life Technologies, Gent, Belgium) and 5 ng/mL Insulin, 5 ug/mL Apo-Transferrin, 5 ng/mL Sodium selenite (All from Sigma, Schnelldorf, Germany). Capacitation medium consisted of basal medium supplemented with either 25 nM CNP or 1 μM Org9935 or 1 μM Cilostamide in combination with 10 nM E2 17-β-estradiol. CNP was obtained from Phoenix Europe (Karlsruhe, Germany), while Cilostamide was obtained from Enzo Life Sciences (Antwerpen, Belgium). Since the aim of the experiment was to make evident potential differences between CNP and PDE3-inhibitors, avoiding potential interference of FSH was crucial, therefore the latter was omitted from capacitation medium. When tested in the presence of FSH, the latter masked the effect of CNP on the connection between the oocyte and surrounding layers of cumulus cells, in having itself a contribution to said connection which is even apparent in the presence of a PDE3-inhibitor (data not shown). […]\nIn FIG. 7 average pixel intensity was used as a tool to quantify positive actin staining (TZP) going through zona pellucida. […]"}, "[2]": {"tested_on": "Immature COCs", "experiment": "Meiotic arrest of immature COCs from small antral follicles, 48 hours culture", "source_text": "(§1) For the collection of immature COCs, compact COCs of the first wave of follicular development were collected from small antral follicles of pre-pubertal mice (19-21 days-old), without prior gonadotropin administration. For the collection of pre-ovulatory COCs (controls), compact COCs were collected by puncturing large antral follicles of pre-pubertal female mice (25-27 days-old) following 48 hrs of priming with 2,5IU 2.5 IU equine Chronic Gonadotropin (eCG, Folligon, Intervet, Oss, The Netherlands). Collection medium consisted of Leibovitz L-15, containing 10% Heat-inactivated Foetal Bovine Serum (FBS), 100lU/ml 100 IU/ml penicillin, 100 μg/ml streptomycin (all from Life Technologies, Gent, Belgium) and supplemented with 200 μM 3-Isobutyl-1-methylxanthine (IBMX; Sigma, Schnelldorf, Germany) to prevent meiosis reinitiation during the period of collection and pre culture handling.\n(§2) Basal culture medium for the culture of COCs (Pre-IVM and IVM phases) consisted of α-MEM, 2.5% FBS (both from Life Technologies, Gent, Belgium) and 5 ng/mL Insulin, 5 ug/mt ug/ml. Apo-Transferrin, 5 ng/mL Sodium selenite (All from Sigma, Schnelldorf, Germany).\nAt specified time-points oocytes were mechanically freed from compact or expanded cumulus cells by using a mouth controlled fine bore glass pipette. Meiotic reinitiation was analyzed by assessing the nuclear maturational stage under an inverted microscope equipped with a Hoffman modulation contrast system (Nikon, Tokyo, Japan). Nuclear maturation was scored as GV (Germinal vesicle stage), GVBD (when GV non visible), PB (first polar body observed in perivitelline space) or DEG (when the oocyte was degenerated). […]\nImmature COCs were retrieved from small antral follicles of female mice aged 19-20 days-old and placed in culture for 48 hours in presence of 25 nM CNP-22 and presence or absence of 10 nM 17-β-estradiol; additionally the effects of the further addition of 2.5 or 5 mlU/mL mIU/ml FSH and/or 50 ng/mL GDF9 were evaluated."}, "[3]": {"tested_on": "Preovulatory COCs", "experiment": "Meiotic resumption after 18 hours, CNP-53 dose range (Example 5)", "procedure": "The materials and methods used in this further example are accordingly in common with the materials and methods used in Example 4 but for the use of CNP-53 instead. Cumulus-oocyte complexes from 24-25 day-old mice were isolated from in vivo grown antral follicles post 48 h eCG stimulation. Mice were injected with 2.5 IU eCG when they were 22-23 days-old. Intact COCs were put in culture for a period of 18 hours in presence of the following doses of CNP-53: • Control (No CNP)* • 0.1 nM • 1 nM • 10 nM • 50 nM • 100 nM • 1 μM • Control 25 nM CNP-22*\n*Two control conditions were included: 1) 25 nM CNP-22 (standard dose known and used in previous experiments to maintain meiotic arrest), 2) a control condition where CNP is not present in the culture media.\nDifferences in the rate of oocyte meiotic resumption (per meiotic stage) were assessed by ANOVA followed by a Tukey's Multiple Comparison Test, p<0.001. Percentages data were transformed (arcsine) before performing statistical analysis."}, "[4]": {"tested_on": "cumulus-enclosed oocytes from early antral follicles", "experiment": "Developmental competence after capacitation culture with CNP or Cilostamide, IVM and IVF (Example 3)", "settings": "48 hours capacitation culture, IVM with EGF, IVF", "procedure": "Immature cumulus-oocyte complexes were isolated from early antral follicles (from unstimulated 19-20 day-old mice). COCs were placed in basal culture medium for a period of 48 hours in presence of either CNP or Cilostamide (PDE3-Inhibitor); similar to example 2.\nFollowing the capacitation culture, COCs were matured in presence of Epidermal growth factor (EGF) and in-vitro fertilized. Post fertilization embryo development was evaluated.\nAcquisition of oocyte competence under each condition was evaluated by their capacity to mature, fertilize (2-cell rate) and to produce good quality blastocyst (by day 5 of embryo culture).\nDifferences in the rate of fertilization and blastocyst formation between CNP and Cilostamide groups were assessed by chi-square."}, "[5]": {"tested_on": "Pre-ovulatory COCs", "experiment": "Meiotic arrest of pre-ovulatory COCs cultured 18 hours with CNP-22 (Example 1)", "source_text": "as §1, §2\n(§3) At specified time-points oocytes were mechanically freed from compact or expanded cumulus cells by using a mouth controlled fine bore glass pipette. Meiotic reinitiation was analyzed by assessing the nuclear maturational stage under an inverted microscope equipped with a Hoffman modulation contrast system (Nikon, Tokyo, Japan). Nuclear maturation was scored as GV (Germinal vesicle stage), GVBD (when GV non visible), PB (first polar body observed in perivitelline space) or DEG (when the oocyte was degenerated).\n(§4) Pre-ovulatory COCs, retrieved from gonadotropin-primed mice (aged 26-27 days-old), were placed in culture, for 18 hours, in presence of 0 (Control), 1, 10, 100 nM CNP-22 and in combination with 4 ng/mL EGF."}, "[6]": {"tested_on": "Pre-ovulatory COCs", "experiment": "EGFR-dependent meiotic resumption of pre-ovulatory COCs in presence of CNP-22 and EGF", "settings": "for PB rate: 18 hours", "source_text": "as §1, §2\nFor experiments involving IVM, recombinant Epidermal growth Factor (r-EGF) (Roche; Mannheim, Germany) and recombinant mouse Epiregulin (EREG) (R&D systems Europe; Oxon, United Kingdom) were used as ovulatory stimuli and the cultures lasted 18 hrs.\nas §3, §4\nPre-ovulatory COCs, retrieved from gonadotropin-primed mice, were placed in culture in absence (controls) or presence of 25 nM CNP-22 4 ng/mL EGF, and meiotic maturation was assessed at 2, 4 and 6 hours. While meiotic resumption increased from 2 to 6 hours in the control group, few GVBDs were induced in the CNP-22 EGF treated group (≤11%), within the same period of time (FIG. 2A)."}, "[7]": {"tested_on": "Preovulatory COCs", "experiment": "Meiotic resumption after 18 hours, CNP-22 dose range (Example 4)", "procedure": "The materials and methods used in this further example are accordingly in common with the materials and methods used in Example 1. Cumulus-oocyte complexes from 24-26 day-old mice were isolated from in vivo grown antral follicles post 48 h equine Chronic Gonadotropin stimulation (eCG, Folligon, Intervet, Oss, The Netherlands). Mice were injected with 2.5 IU eCG when they were 22-24 days-old. Intact COCs with at least 2 layers of cumulus cells were put in culture for a period of 18 hours in presence of the following doses of CNP: • Control (No CNP)* • 0.1 nM** • 1 nM • 10 nM • 50 nM** • 100 nM • 1 μM**\nCOCs were collected and cultured according to the previous dose experiments in mice, provided in the Example 1.\nDifferences in the rate of oocyte meiotic resumption (per meiotic stage) were assessed by ANOVA followed by a Tukey's Multiple Comparison Test, p<0.01. Percentages data were transformed (arcsine) before performing statistical analysis.\nOocyte meiotic arrest was confirmed by the presence of an intact germinal vesicle (GV) under the inverted microscope, […]"}, "[8]": {"settings": "1 nM, 10 nM, 50 nM and 100 nM, 18 hours"}}, "note": "Entries after “also recorded” stand apart in the source; their conditions may differ. No end group written: not given here."}
{"substance": "C-type natriuretic peptide (GLSKGCFGLKLDRIGSMSGLGC; ends and bridges not checked; cysteine pairing not given here; UniProt P23582 105-126, looked up) [CNP-22, 22 amino acid C-type natriuretic peptide, obtained from Phoenix Europe]", "values": [{"measurement": "transzonal projections / connectivity between oocytes and cumulus cells", "setting": "[1]", "result": "full with transzonal projections; also recorded: kept better the connectivity between oocytes and cumulus cells"}, {"measurement": "oocytes maintained in meiotic arrest", "setting": "[2]; 1 nM, 10 nM, 25 nM, or 50 nM CNP, oocytes from the smallest size of follicles", "result": "~100", "unit": "%"}, {"measurement": "GV rate", "setting": "[2]; 25 nM CNP alone, 48 hours", "result": 26, "unit": "%"}, {"measurement": "maintenance of meiotic arrest in immature COCs", "setting": "[2]; CNP-22 alone, culture up to 48 hours (data not shown)", "result": "can maintain meiotic arrest for 24 hours but not for 48 hours"}, {"measurement": "oocytes under meiotic arrest (GV rate)", "setting": "[3]; 25 nM CNP-22 positive control, 18 hours", "result": 75, "unit": "%"}, {"measurement": "fertilization rate, CNP vs Cilostamide", "setting": "[4]", "result": "no difference"}, {"measurement": "blastocyst formed per fertilized egg, CNP vs Cilostamide", "setting": "[4]; day 5", "result": "significantly higher"}, {"measurement": "GV rate at the end of culture", "setting": "[5]; 1 nM CNP-22, 18 hours", "result": 48, "unit": "%"}, {"measurement": "GV rate at the end of culture", "setting": "[5]; 10 nM CNP-22, 18 hours", "result": 93, "unit": "%"}, {"measurement": "GV rate at the end of culture", "setting": "[5]; 100 nM CNP-22, 18 hours", "result": 96, "unit": "%"}, {"measurement": "time meiotic arrest is maintained", "setting": "[5]; pre-ovulatory COCs", "result": "at least 24 hours"}, {"measurement": "PB rate", "setting": "[6]; 1 nM CNP-22 with 4 ng/mL EGF", "result": 92, "unit": "%"}, {"measurement": "PB rate", "setting": "[6]; 10 nM CNP-22 with 4 ng/mL EGF", "result": 35, "unit": "%"}, {"measurement": "GVBDs induced", "setting": "[6]; 25 nM CNP-22, 4 ng/mL EGF, 2 to 6 hours", "result": "≤ 11", "unit": "%"}, {"measurement": "occurrence of PB oocytes", "setting": "[6]; 25 nM CNP-22, 4 ng/mL EGF, 24 hours", "result": 93, "unit": "%"}, {"measurement": "PB rate", "setting": "[6]; 100 nM CNP-22 with 4 ng/mL EGF", "result": 15, "unit": "%"}, {"measurement": "delay of EGFR-induced meiotic resumption vs control", "setting": "[6]; COCs kept under meiotic arrest by CNP", "result": 6, "unit": "h"}, {"measurement": "percentage of oocytes at the GVBD-stage vs control", "setting": "[7]; 0.1 nM to 1 μM, 18 hours", "result": "No significant differences"}, {"measurement": "maintaining oocytes arrested at the GV stage", "setting": "[7]; 0.1 nM, 18 hours", "result": "suboptimal"}, {"measurement": "oocytes in meiotic arrest (GV rate)", "setting": "[7]; 1 nM CNP-22, 18 hours", "result": 80, "unit": "%"}, {"measurement": "oocytes extruding the first polar body (PB rate)", "setting": "[7]; [8]", "result": "low proportion or lack"}, {"measurement": "oocytes in meiotic arrest (GV rate)", "setting": "[7]; 10 nM CNP-22, 18 hours", "result": 98, "unit": "%"}, {"measurement": "oocytes in meiotic arrest (GV rate)", "setting": "[7]; 50 nM CNP-22, 18 hours", "result": 94, "unit": "%"}, {"measurement": "oocytes in meiotic arrest (GV rate)", "setting": "[7]; 100 nM CNP-22, 18 hours", "result": 87, "unit": "%"}, {"measurement": "maintaining oocytes arrested at the GV stage", "setting": "[7]; 1 μM, 18 hours", "result": "suboptimal"}, {"measurement": "rate of meiotic arrest in preovulatory oocytes", "setting": "[7]; dose interval 1 nM to 100 nM", "result": "above 80%"}]}
{"substance": "CNP-53: CNP analogue; endogenous form of C-type natriuretic peptide containing a 53-amino acid sequence (DLRVDTKSRAAWARLLQEHPNARKYKGANKKGLSKGCFGLKLDRIGSMSGLGC; ends and bridges not checked; cysteine pairing not given here; UniProt P23582 74-126, looked up)", "values": [{"measurement": "percentage of oocytes at the GVBD-stage vs control", "setting": "[3]; 0.1 nM to 1 μM, 18 hours", "result": "No significant differences"}, {"measurement": "maintaining oocytes arrested at the GV stage", "setting": "[3]; 0.1 nM, 18 hours", "result": "suboptimal"}, {"measurement": "oocytes under meiotic arrest (GV rate)", "setting": "[3]; 1 nM CNP-53, 18 hours", "result": 66, "unit": "%"}, {"measurement": "proportion of oocytes extruding the first polar body vs control without CNP", "setting": "[3]; [8]", "result": "significant different"}, {"measurement": "oocytes under meiotic arrest (GV rate)", "setting": "[3]; 10 nM CNP-53, 18 hours", "result": 98, "unit": "%"}, {"measurement": "oocytes under meiotic arrest (GV rate)", "setting": "[3]; 50 nM CNP-53, 18 hours", "result": 72, "unit": "%"}, {"measurement": "oocytes under meiotic arrest (GV rate)", "setting": "[3]; 100 nM CNP-53, 18 hours", "result": 69, "unit": "%"}, {"measurement": "maintaining oocytes arrested at the GV stage", "setting": "[3]; 1 μM, 18 hours", "result": "suboptimal"}]}
